According to PubChem BioAssay (NCI):
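Five concentrations, 48 hours, 96-well plates. At the GI50, growth is halved. TGI marks complete inhibition of growth.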 Where a SMILES comes first, the peptide text is derived from it. The star is where a group is joined. Palmitoyl = CCCCCCCCCCCCCCCC(=O)*

Experiments:
Assay in all cases: NCI anticancer screen, dose series, 48 h
[1] = system: SNB-75 CNS
[2] = system: OVCAR-4 ovarian
[3] = system: SK-MEL-5 melanoma
[4] = system: CCRF-CEM leukemia
[5] = system: KM12 colon
[6] = system: OVCAR-3 ovarian
[7] = system: OVCAR-5 ovarian
[8] = system: SK-MEL-28 melanoma
[9] = system: U251 CNS
[10] = system: MOLT-4 leukemia

Compound | TGI [1] [µM] | TGI [2] [µM] | TGI [3] [µM] | TGI [4] [µM] | TGI [5] [µM] | TGI [6] [µM] | TGI [7] [µM] | TGI [8] [µM] | TGI [9] [µM] | TGI [10] [µM] | GI50 [1] [nM] | GI50 [4] [nM] | GI50 [5] [nM] | GI50 [8] [nM] | GI50 [9] [nM] | GI50 [10] [µM] | GI50 [2] [µM] | GI50 [3] [µM] | GI50 [6] [µM] | GI50 [7] [µM]
CC12C=CC(=O)C=C1CCC1C3CCC(O)(C(=O)CO)C3(C)CC(O)C12F (stereo not drawn) | > 100 | > 100 | > 100 | > 100 | > 100 | > 100 | > 100 | > 100 | > 100 | > 100 | – | – | – | – | – | – | – | – | – | –
CON(C)c1nc(N(C)OC)nc(N(C)OC)n1 | > 10 | > 10 | > 10 | > 10 | > 10 | > 10 | > 10 | > 10 | > 10 | > 10 | – | – | – | – | – | – | – | – | – | –
Nc1nc(O)c2ncn([C@H]3CC[C@@H](CO)O3)c2n1 | > 100 | > 100 | > 100 | > 100 | > 100 | > 100 | > 100 | > 100 | > 100 | > 100 | – | – | – | – | – | – | – | – | – | –
CN1C(c2ccccc2)CC(=O)C(N)C1c1ccccc1 (stereo not drawn) | > 100 | > 100 | 33.6 | 66 | 57.5 | > 86.3 | > 70.8 | > 31.6 | 49.2 | > 58.8 | – | – | – | – | – | – | – | – | – | –
Cn1c(-c2ccccc2)cc(-c2cccs2)c1-c1cccs1 | > 100 | > 100 | > 100 | > 100 | > 44.9 | > 100 | > 100 | > 100 | > 100 | > 100 | – | – | – | – | – | – | – | – | – | –
Cc1cc(C)nc(NS(=O)(=O)c2ccc(NC(=O)c3cccc4c(Nc5ccc(S(=O)(=O)Nc6cc(C)on6)cc5)c5ccccc5nc34)cc2)n1 | 48.9 | 50.2 | – | 75.7 | 30.4 | 38.9 | 34 | 50 | 40.2 | 86.4 | – | – | – | – | – | – | – | – | – | –
CCN1CCC(O)(/C=C/c2ccccc2C)C(C(=O)/C=C/c2ccccc2C)C1 (stereo not drawn) | 16.6 | 12.5 | 2.9 | 4.85 | – | 4.77 | 3.99 | 6.71 | 7.25 | 6.12 | – | – | – | – | – | – | – | – | – | –
COC(=O)C1=C(OC(=O)/C(=C/c2ccc(Cl)cc2)c2ccc(Cl)cc2)C(C(=O)OC)[C@]2(O)[C@@H](C(=O)OC)[C@H]1C[C@@H](c1ccccc1)[C@@H]2C(=O)OC (stereo partly drawn) | > 100 | > 100 | > 100 | – | > 100 | > 100 | > 100 | > 100 | > 100 | > 100 | – | – | – | – | – | – | – | – | – | –
O[C@@]12Cc3c([nH]c4ccccc34)[C@@H]3Oc4cccc5c4[C@@]31CCN(CC1CC1)[C@@H]2C5 | – | 41.3 | 40.7 | 29.9 | 54 | 36.8 | 49.4 | 38.3 | 54 | 52.7 | – | – | – | – | – | – | – | – | – | –
C/C(=N/N=C(\[O-])c1ccncc1)C(F)(F)F.C/C(=N\N=C(/[O-])c1ccncc1)C(F)(F)F.[Ni+2] | > 1 | – | – | > 1 | > 1 | – | – | 0.005 | – | > 1 | > 1000 | > 1000 | > 1000 | 1.08 | > 1000 | > 1 | – | – | – | –
CCCCCCCCCCCCCCCC(=O)N1CCCC1C(=O)NCC(=O)NC(Cc1ccccc1)C(=O)NC(C)C(=O)NC(CO)C(=O)NC(Cc1ccc(O)cc1)C(=O)NC(CCCCN)C(=O)NC(CC(C)C)C(=O)NC(CCCN=C(N)N)C(=O)N1CCCC1C(=O)NCC(N)=O (stereo not drawn) (Palmitoyl-PGFASYKLRPG-NH2; configuration not given here) | 43.5 | 92.6 | > 100 | 30.1 | 51.4 | 56.6 | 38.6 | 48.8 | – | 31.4 | 22900 | 16500 | 21900 | 22100 | – | 17.6 | 33.8 | 33.4 | 24.2 | 15.4
C=C(C)C1Cc2c(c3ccccc3n(C)c2=O)O1 (stereo not drawn) | > 100 | – | > 100 | > 100 | – | > 100 | – | > 100 | > 100 | > 100 | – | – | – | – | – | – | – | – | – | –
c1ccc(-c2nc(N3CCNCC3)c3oc(-c4ccccc4)nc3n2)cc1 | 2.59 | 3.19 | 3.2 | 4.08 | 3.35 | 3.21 | 3.08 | 3.16 | – | – | 1270 | 1630 | 1800 | 1730 | – | – | 1.68 | 1.77 | 1.74 | 1.69
CC(C)C(C(=O)O)N1C(=O)c2ccccc2C1=O (stereo not drawn) | > 100 | > 100 | > 100 | > 100 | > 100 | > 100 | > 100 | > 100 | > 100 | > 100 | – | – | – | – | – | – | – | – | – | –
